The values below come from patent US20190382432A1 (Synbias Pharma AG, priority 2013, published 2019).

Counter-ions that a name gives are not always drawn. Marks after values point to notes of the source that are not given here.

Common to all, as to format: physicochemical
Series [1] in a line: Thermostability under stress conditions (storage at 100 °C for one month), HPLC. The protocol:
Sample S was prepared according to the present invention, as described in Example 3 above. Sample M1 was prepared according to Example 1 of WO 2012/163508 A1, as described in Example 7 above. Finally, Sample M2 was prepared according to Example 2 of WO 2012/163508 A1, as described in Example 7 above.
The samples were exposed to a temperature of 100° C. for the time period (in weeks) indicated. The testing was performed as described in the ICH Guideline Q1A (R2) (cf. above). The amount of the degradation product (i.e. doxorubicinone) produced as well as those of various impurities (i.e., doxorubicin and four different impurities of yet unknown identity; all given in % (w/w); “n.d.”=not determined) was determined by HPCL analysis (“LT”=less than).

A short description of series [2]: Particle size distribution by laser diffraction analysis (Mastersizer 2000). The following applies: wet laser diffraction in acetone; listed as Sample 1, hydrochloride. The protocol:
Laser diffraction analysis was performed in form of wet laser diffraction in acetone: 1750 rpm, 3×20 s cycle time, 60 s background time, without sonication, and 5 min stirring time using a Mastersizer 2000 Particle Size Analyzer (Malvern Instruments Ltd., Malvern, UK) according to the manufacturer's instructions.

Series [3] in a line: Thermostability on storage at 25, 40 and 100 °C per ICH Q1A (R2), HPLC. On the procedure: HPLC and GC analyses were performed according to standard protocols.
The testing was performed as described in the ICH guidelines (cf. inter alia ICH Guideline Q1A (R2)).

The nature of series [4]: Hygroscopic capacity: water content by Karl-Fischer titration after exposure to temperature and relative humidity. The following applies: 25 or 40 °C, 40-90% rh. The protocol:
Coulometric Karl-Fischer titration (KFT; for determining the water content) was performed with an external drying oven (Metrohm 707 KF; operated at 140° C. with N2 purge). The samples were precisely weighed on an analytical balance (10^−5 g).
The testing was performed as described in the ICH guidelines.

Where [5] appears, read: 25 °C, 12 months, hydrochloride.
Setting [6] is: 25 °C, 24 months, hydrochloride.
[7] abbreviates: 100 °C, 0 months, hydrochloride.

As for `COc1cccc2c1C(=O)c1c(O)c3c(c(O)c1C2=O)C[C@@](O)(C(=O)CO)C[C@@H]3O[C@H]1C[C@H](N)[C@H](O)[C@H](C)O1` [Example M1, epirubicin hydrochloride], in series [1] (0 weeks), the “Doxorubicin (NMT 1%)” value is listed as 0.29 % (w/w), the “Doxorubicinone (Aglycone) (NMT 1%)” value is < 0.05 % (w/w) and the “Total Impurities (NMT 2%)” value is reported as 0.30 % (w/w). In series [1] (1 week, hydrochloride), the “Doxorubicin (NMT 1%)” value is 0.27 % (w/w), the “Doxorubicinone (Aglycone) (NMT 1%)” value was 0.52 % (w/w), the “Total Impurities (NMT 2%)” value is 1.20 % (w/w) and the “Unknown impurity RRT 1.2 (NMT 0.15%)” value was 0.06 % (w/w). Moreover, in series [1] (1 week, hydrochloride), the “Unknown impurity RRT 1.6 (NMT 0.15%)” value was 0.08 % (w/w) and the “Unknown impurity RRT 1.7 (NMT 0.15%)” value is 0.12 % (w/w). Further, the “Doxorubicin (NMT 1%)” value in series [1] (2 weeks) is 0.32 % (w/w). Moreover, in series [1] (2 weeks, hydrochloride), the “Doxorubicinone (Aglycone) (NMT 1%)” value is listed as 0.57 % (w/w), the “Total Impurities (NMT 2%)” value was 1.60 % (w/w), the “Unknown impurity RRT 1.1 (NMT 0.15%)” value was 0.11 % (w/w) and the “Unknown impurity RRT 1.2 (NMT 0.15%)” value is on record as 0.13 % (w/w). In addition, in series [1] (2 weeks, hydrochloride), the “Unknown impurity RRT 1.6 (NMT 0.15%)” value was 0.18 % (w/w) and the “Unknown impurity RRT 1.7 (NMT 0.15%)” value is 0.16 % (w/w). Besides, in series [1] (3 weeks, hydrochloride), the “Doxorubicin (NMT 1%)” value was 0.33 % (w/w), the “Doxorubicinone (Aglycone) (NMT 1%)” value is reported as 0.61 % (w/w), the “Total Impurities (NMT 2%)” value is given as 1.80 % (w/w) and the “Unknown impurity RRT 1.1 (NMT 0.15%)” value is recorded as 0.14 % (w/w). In series [1] (3 weeks, hydrochloride), the “Unknown impurity RRT 1.2 (NMT 0.15%)” value was 0.14 % (w/w), the “Unknown impurity RRT 1.6 (NMT 0.15%)” value was 0.24 % (w/w) and the “Unknown impurity RRT 1.7 (NMT 0.15%)” value is reported as 0.20 % (w/w). Besides, in series [1] (4 weeks), the “Doxorubicin (NMT 1%)” value was 0.33 % (w/w). Besides, in series [1] (4 weeks, hydrochloride), the “Doxorubicinone (Aglycone) (NMT 1%)” value is 0.61 % (w/w), the “Total Impurities (NMT 2%)” value is listed as 2.3* % (w/w), the “Total amount of unknown impurities” value is listed as 1.36 % (w/w) and the “Unknown impurity RRT 1.1 (NMT 0.15%)” value is given as 0.18 % (w/w). For the same compound, in series [1] (4 weeks, hydrochloride), the “Unknown impurity RRT 1.2 (NMT 0.15%)” value is 0.18 % (w/w), the “Unknown impurity RRT 1.6 (NMT 0.15%)” value is listed as 0.46 % (w/w) and the “Unknown impurity RRT 1.7 (NMT 0.15%)” value is given as 0.31 % (w/w). Besides, the “D(v/0.5), mean diameter based on the volume of the particles” value in series [2] amounted to 4.62 μm.

With `COc1cccc2c1C(=O)c1c(O)c3c(c(O)c1C2=O)C[C@@](O)(C(=O)CO)C[C@@H]3O[C@H]1C[C@H](N)[C@H](O)[C@H](C)O1` [epirubicin hydrochloride monohydrate, epirubicin hydrochloride], in series [3] (25 °C), the “Stability over a time period (overall shelf-life)” value is no less than 5 years. Further, the Doxorubicinone result in series [3] (25 °C, 0 months) is “LT 0.05 % (w/w)”; in series [3] (25 °C, 1 month, hydrochloride) it was “LT 0.05 % (w/w)”; in series [3] (25 °C, 3 months, hydrochloride) it was “LT 0.05 % (w/w)”; in series [3] (25 °C, 6 months, hydrochloride) it was “LT 0.05 % (w/w)”; in series [3] (setting [5]), “LT 0.05 % (w/w)”; in series [3] (setting [6]), “LT 0.05 % (w/w)”. Also, the Doxorubicinone entry is recorded as “LT 0.05 % (w/w)” in series [3] (25 °C, 36 months); “LT 0.05 % (w/w)” in series [3] (25 °C, 48 months); “LT 0.05 % (w/w)” in series [3] (25 °C, 60 months); “LT 0.05 % (w/w)” in series [3] (40 °C, 0 months); “LT 0.05 % (w/w)” in series [3] (40 °C, 1 month, hydrochloride); “LT 0.05 % (w/w)” in series [3] (40 °C, 3 months, hydrochloride). Besides, the Doxorubicinone result in series [3] (40 °C, 6 months, hydrochloride) is given as “LT 0.05* % (w/w)”; in series [3] (100 °C, 0 months) it was “LT 0.05 % (w/w)”; in series [3] (100 °C, 1 month, hydrochloride) it was “LT 0.5** % (w/w)”; in series [3] (100 °C, 1 month, listed as crystalline monohydrate of epirubicin hydrochloride, hydrochloride), “less than 0.5 % (w/w)”. Also, the “Assay (intact epirubicin hydrochloride)” value is 99.2 % (w/w) in series [3] (25 °C, 0 months, hydrochloride); 99.4 % (w/w) in series [3] (25 °C, 1 month, hydrochloride); 99.4 % (w/w) in series [3] (25 °C, 3 months, hydrochloride); 99.2 % (w/w) in series [3] (25 °C, 6 months, hydrochloride); 99.0 % (w/w) in series [3] (setting [5]); 99.4 % (w/w) in series [3] (setting [6]). The “Assay (intact epirubicin hydrochloride)” value in series [3] (25 °C, 36 months) is 99.1 % (w/w); in series [3] (25 °C, 48 months), 99.1 % (w/w); in series [3] (25 °C, 60 months) it was 99.2 % (w/w); in series [3] (40 °C, 0 months, hydrochloride), 99.2 % (w/w); in series [3] (40 °C, 1 month, hydrochloride), 99.2 % (w/w); in series [3] (40 °C, 3 months, hydrochloride) it was 99.1 % (w/w). In addition, the “Assay (intact epirubicin hydrochloride)” value in series [3] (40 °C, 6 months, hydrochloride) is 99.3 % (w/w); in series [3] (setting [7]) it was 99.2 % (w/w); in series [3] (100 °C, 1 month, hydrochloride) it was 98.3 % (w/w). For the same compound, the “Stability over a time period (thermostability)” value in series [3] (40 °C) is no less than 6 months. The “Hygroscopic capacity, in words” value in series [4] (up to 15 days) is “does not exhibit any significant hygroscopic capacity”.

As to `COc1cccc2c1C(=O)c1c(O)c3c(c(O)c1C2=O)C[C@@](O)(C(=O)CO)C[C@@H]3O[C@H]1C[C@H](N)[C@H](O)[C@H](C)O1` [epirubicin hydrochloride trihydrate, epirubicin hydrochloride], the Doxorubicinone result in series [3] (25 °C, 0 months) is “LT 0.05 % (w/w)”; in series [3] (25 °C, 1 month, hydrochloride), 0.06 % (w/w); in series [3] (25 °C, 3 months, hydrochloride), 0.09 % (w/w); in series [3] (25 °C, 6 months, hydrochloride), 0.22 % (w/w); in series [3] (setting [5]), 0.42 % (w/w); in series [3] (setting [6]) it was 0.62 % (w/w). Besides, the Doxorubicinone result in series [3] (40 °C, 0 months) is “LT 0.05 % (w/w)”; in series [3] (40 °C, 1 month, hydrochloride) it was 0.22 % (w/w); in series [3] (40 °C, 3 months, hydrochloride), 0.45 % (w/w); in series [3] (40 °C, 6 months, hydrochloride), 0.78* % (w/w); in series [3] (100 °C, 0 months) it was “LT 0.05 % (w/w)”; in series [3] (100 °C, 1 month, hydrochloride) it was 4.7** % (w/w). In addition, the “Assay (intact epirubicin hydrochloride)” value is reported as 98.8 % (w/w) in series [3] (25 °C, 0 months, hydrochloride); 98.7 % (w/w) in series [3] (25 °C, 1 month, hydrochloride); 98.7 % (w/w) in series [3] (25 °C, 3 months, hydrochloride); 98.4 % (w/w) in series [3] (25 °C, 6 months, hydrochloride); 98.5 % (w/w) in series [3] (setting [5]); 98.0 % (w/w) in series [3] (setting [6]). Moreover, the “Assay (intact epirubicin hydrochloride)” value in series [3] (40 °C, 0 months, hydrochloride) is 98.8 % (w/w); in series [3] (40 °C, 1 month, hydrochloride) it was 98.4 % (w/w); in series [3] (40 °C, 3 months, hydrochloride) it was 98.2 % (w/w); in series [3] (40 °C, 6 months, hydrochloride), 98.0 % (w/w); in series [3] (setting [7]), 98.8 % (w/w); in series [3] (100 °C, 1 month, hydrochloride), 89.5 % (w/w). Besides, in series [3] (within six months storage at 25 °C), the “Degradation on storage, in words” value is given as “significant degradation”.

Take `COc1cccc2c1C(=O)c1c(O)c3c(c(O)c1C2=O)C[C@@](O)(C(=O)CO)C[C@@H]3O[C@H]1C[C@H](N)[C@H](O)[C@H](C)O1` [Example 2, epirubicin hydrochloride]: the “Thermostability compared with the Example 1 monohydrate (TABLE 5-1), in words” value in series [3] (25, 40, 100 °C, data not shown) was “almost identical results”. In addition, in series [4] (data not shown), the “Hygroscopic capacity compared with the Example 1 monohydrate (TABLE 6-1), in words” value is “almost identical results”.
